# Where “and” joins values, the source holds several entries; their conditions need not be identical. Identical values can stand only once. Marks after values point to notes of the source that are not given here.
# What was measured:
# [1] = system: TR146 cells; test: In vitro permeation, buccal model; type: in vitro ADME, human
# Description: The in vitro permeability of the bioactive compounds present in OFs (n = 9) was determined using a co-culture model composed of TR146 ([31]). The extract and the CS-loaded OFs were added to the apical side of the model as a stock solution. […] The Transepithelial Electrical Resistance (TEER) of the model was evaluated before, during, and at the end of the permeability assay using an EVOM Epithelial Volthometer equipped with a chopstick electrode (World Precision Instruments, Sarasota, FL, USA).
# (§1) The identification and quantification of the phenolic compounds present in the extract and the OFs, as well as the compounds that permeated from the OFs through in vitro and ex vivo assays, were conducted using an LC-ESI-LTQ-Orbitrap-HRMS equipment with an Accela chromatograph (Thermo Scientific, Hemel Hempstead, UK), a photodiode array detector, a quaternary pump, and a temperature-controlled autosampler coupled to a high-resolution LTQ Orbitrap Velos mass spectrometer (Thermo Scientific, Hemel Hempstead, UK) with an ESI source in negative mode ([33], [34]). The system was controlled using the Xcalibur v3.0 software (ThermoFisher Scientific, Hemel Hempstead, UK). Elution was performed on an Acquity™ UPLC® BEH C18 Column (2.1 × 100 mm, i.d., 1.7 µm particle size, Waters Corporation, Wexford, Ireland) maintained at 30°C.
# (§2) Gradient elution was performed with water (A) and acetonitrile (B), both with 0.1% formic acid, with a flow rate and injection volume of 450 µl/min and 5 µl, respectively. The solvent gradient (v/v) of B [t (min), %B] was set as follows: (0, 0), (2, 0), (4, 30), (8, 100), (10, 100), (11, 0), and (14, 0). The samples were analyzed in the full scan mode at a resolving power of 30,000 and m/z 600. Data-dependent MS/MS events were acquired at a resolution of 15,000. Most intense ions were detected via the FTMS mode-triggered data-dependent acquisition mode. Ions that were not sufficiently intense for a data-dependent scan were explored in MSn mode. Precursors were fragmented by collision-induced dissociation using a C-trap with a normalized collision energy (35 V) and an activation time of 10 ms. […] Compounds whose theoretical [M–H]^− values exceeded the MS¹ acquisition range (m/z 100–600) were annotated based on characteristic MSⁿ fragment ions detected within the scan window.
# [2] = Ex vivo permeation, Franz cells; type: in vitro ADME, porcine
# Description: Porcine buccal mucosa was used to evaluate the buccal permeation of the phenolic compounds in the extract and the CS-loaded OFs (n = 9). The porcine buccal mucosa was purchased in a local butcher shop, not requiring ethical approval. A Franz cell assembly (9 mm clear jacketed Franz cell with a flat ground joint, 5 ml receptor volume, and permeation area of 0.785 cm^2; PermeGear, Inc., USA) was used. This experiment followed the methodology described by Rodrigues et al. ([32]). In the Franz apparatus, the porcine buccal mucosa was positioned with the cheek side facing the donor chamber, which contained 500 µl (1,000 μg/ml) of the CS extract or the CS-loaded OFs (two square films (2 × 2 cm) with […] of thickness were dissolved in 4 ml of artificial saliva; donor concentration was normalized to ensure equivalence between the extract solution and the film formulation). The receptor chamber was filled with 5 ml PBS, maintained at 37°C, and stirred continuously at 150 rpm. The volume was maintained through the experiments.
# as §1, §2
# Quantitative analysis was performed by using a validated chromatographic method ([38]).
Quantification of permeated compounds ([1]; CS extract),Quantification of permeated compounds ([1]; CS-loaded OFs),"Permeation (%) ([1]; from CS extract, 15 min)","Permeation (%) ([1]; from CS extract, 30 min)","Permeation (%) ([1]; from CS extract, 45 min)","Permeation (%) ([1]; from CS extract, 60 min)","Permeation (%) ([1]; from CS extract, 90 min)","Permeation (%) ([1]; from CS extract, 120 min)","Permeation (%) ([1]; from CS extract, 180 min)","Permeation (%) ([1]; from CS extract, 240 min)",Quantification of permeated compounds ([2]; CS extract),Quantification of permeated compounds ([2]; CS-loaded OFs),"Permeation (%) ([2]; from CS extract, 15 min)","Permeation (%) ([2]; from CS extract, 30 min)",SMILES,other results
0.54 ± 0.01^a mg/ml,0.42 ± 0.01^a mg/g film,"39.51 ± 0.87^a^,^b %",79.23 ± 1.43c %,12.98 ± 0.01^a %,"33.80 ± 0.08^a^,^b %","30.46 ± 0.05^a^,^b %","41.34 ± 1.01^a^,^b %","25.02 ± 0.09^a^,^b %",56.50 ± 0.37^c %,,,,,O[C@H]1[C@H](O)[C@@H](O)[C@H](O)[C@@H](O)[C@H]1O [Myo-Inositol],
,,,,,,,,,,5.52 ± 0.24^b mg/ml,0.42 ± 0.01^a mg/g film,8.67 ± 0.03^a %,8.57 ± 1.47^a %,N[C@@H](Cc1ccccc1)C(=O)O [L-Phenylalanine],
,,,,,,,,,,23.93 ± 1.12^a mg/ml,23.67 ± 5.00^a mg/g film,85.64 ± 4.12^a %,86.86 ± 3.52^a %,O=C(O)CCCCCCCCCC(=O)O [Undecanedioic acid],
0.70 ± 0.02^a mg/ml,0.44 ± 0.05^a mg/g film,8.10 ± 0.02^a %,23.12 ± 0.56^b %,28.35 ± 0.83^b %,28.43 ± 0.41^b %,42.18 ± 1.08^c %,27.71 ± 0.72^a %,53.91 ± 1.07^d %,52.90 ± 0.73^d %,,,,,COc1cc(C=O)ccc1O [Vanillin],
0.41 ± 0.03^a mg/ml,0.36 ± 0.02^a mg/g film,97.57 ± 1.07^a %,96.86 ± 2.25^a %,97.35 ± 1.74^a %,98.05 ± 3.81^a %,97.75 ± 5.73^a %,97.73 ± 6.01^a %,97.36 ± 2.57^a %,96.86 ± 1.86^a %,,,,,Oc1cc(O)c2c(c1)O[C@H](c1ccc(O)c(O)c1)[C@H](O)C2 [Epicatechin],"Permeation (%) ([1]; from CS extract, 240 min, listed as epicatechin): 96.86%"
,,,,,,,,,,7.15 ± 2.50^b mg/ml,1.27 ± 0.05^a mg/g film,10.61 ± 0.08^a %,6.26% and 6.26 ± 0.75^a %,O=c1oc2c(O)c(O)cc3c(=O)oc4c(O)c(O)cc1c4c23 [Ellagic acid],"Permeation (%) ([2]; from CS-loaded OFs, 15 min): 35.46 ± 0.32^b %; Permeation (%) ([2]; from CS-loaded OFs, 30 min): 60.75% and 60.75 ± 1.62^c %"
41.32 ± 2.63^b mg/ml,28.93 ± 1.88^a mg/g film,13.92 ± 0.12^a %,15.39 ± 1.05^a %,18.22 ± 1.41^b %,23.34 ± 0.88^b %,22.87 ± 1.52^b %,23.68 ± 1.84^b %,21.35 ± 0.97^b %,28.47 ± 2.52^b %,,,,,O=C1CC[C@@H](C(=O)O)N1 [Pyroglutamic acid],"Permeation (%) ([1]; from CS-loaded OFs, 15 min): 17.03 ± 0.23^a %; Permeation (%) ([1]; from CS-loaded OFs, 30 min): 39.63 ± 0.24^a^,^b %; Permeation (%) ([1]; from CS-loaded OFs, 45 min): 43.32 ± 1.12^a^,^b %; Permeation (%) ([1]; from CS-loaded OFs, 60 min): 46.32 ± 2.65^a^,^b %; Permeation (%) ([1]; from CS-loaded OFs, 90 min): 65.40 ± 0.82^b %; Permeation (%) ([1]; from CS-loaded OFs, 120 min): 66.95 ± 3.71^b %; Permeation (%) ([1]; from CS-loaded OFs, 180 min): 103.24 ± 2.71^c %; Permeation (%) ([1]; from CS-loaded OFs, 240 min): 111.34% and 111.34 ± 1.62^c %"
,,,,,,,,,,26.17 ± 2.25^a mg/ml,30.41 ± 0.01^a mg/g film,65.10 ± 1.87^a %,67.06 ± 2.58^a %,O=C(O)CCCCCC(=O)O [Pimelic acid],"Permeation (%) ([2]; from CS-loaded OFs, 15 min): 76.61 ± 4.85^a %"

SMILES,Quantification of permeated compounds ([1]; CS extract),Quantification of permeated compounds ([1]; CS-loaded OFs),"Permeation (%) ([1]; from CS extract, 15 min)","Permeation (%) ([1]; from CS extract, 30 min)","Permeation (%) ([1]; from CS extract, 45 min)","Permeation (%) ([1]; from CS extract, 60 min)","Permeation (%) ([1]; from CS extract, 90 min)","Permeation (%) ([1]; from CS extract, 120 min)","Permeation (%) ([1]; from CS extract, 180 min)","Permeation (%) ([1]; from CS extract, 240 min)",Quantification of permeated compounds ([2]; CS extract),Quantification of permeated compounds ([2]; CS-loaded OFs),"Permeation (%) ([2]; from CS extract, 15 min)","Permeation (%) ([2]; from CS extract, 30 min)",other results
O=c1c(O[C@@H]2O[C@H](CO)[C@H](O)[C@H](O)[C@H]2O)c(-c2ccc(O)c(O)c2)oc2cc(O)cc(O)c12 [Quercetin 3-O-galactoside],0.36 ± 0.01^a mg/ml,0.36 ± 0.01^a mg/g film,,,,49.94 ± 0.98^a %,,,,,,,,,
